Experimental data: PubChem BioAssay (NCI)
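Exposure lasted 48 hours, with cells grown in 96-well plates and compounds tested at five concentrations. TGI: total growth inhibition.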

What was measured:
Test in all cases: NCI anticancer screen, dose series, 48 h
T-47D breast = tested on: T-47D breast
MDA-N = tested on: MDA-N
NCI/ADR-RES ovarian = tested on: NCI/ADR-RES ovarian
SN12C renal = tested on: SN12C renal
HT29 colon = tested on: HT29 colon
SR leukemia = tested on: SR leukemia
OVCAR-3 ovarian = tested on: OVCAR-3 ovarian
SF-539 CNS = tested on: SF-539 CNS
A549 NSCLC = tested on: A549 NSCLC
DU-145 prostate = tested on: DU-145 prostate
OVCAR-8 ovarian = tested on: OVCAR-8 ovarian
BT-549 breast = tested on: BT-549 breast
ACHN renal = tested on: ACHN renal
PC-3 prostate = tested on: PC-3 prostate
MDA-MB-231 breast = tested on: MDA-MB-231 breast
HOP-62 NSCLC = tested on: HOP-62 NSCLC
SNB-19 CNS = tested on: SNB-19 CNS
MALME-3M melanoma = tested on: MALME-3M melanoma
NCI-H460 lung = tested on: NCI-H460 lung
NCI-H522 lung = tested on: NCI-H522 lung
UO-31 renal = tested on: UO-31 renal
M14 melanoma = tested on: M14 melanoma
COLO 205 colon = tested on: COLO 205 colon
A498 renal = tested on: A498 renal
RXF 393 renal = tested on: RXF 393 renal
SK-MEL-28 melanoma = tested on: SK-MEL-28 melanoma
LOX IMVI melanoma = tested on: LOX IMVI melanoma
SK-OV-3 ovarian = tested on: SK-OV-3 ovarian
K-562 leukemia = tested on: K-562 leukemia
SF-268 CNS = tested on: SF-268 CNS
CAKI-1 renal = tested on: CAKI-1 renal
SK-MEL-5 melanoma = tested on: SK-MEL-5 melanoma
MDA-MB-435 = tested on: MDA-MB-435
HCC-2998 colon = tested on: HCC-2998 colon
OVCAR-5 ovarian = tested on: OVCAR-5 ovarian
OVCAR-4 ovarian = tested on: OVCAR-4 ovarian
SW-620 colon = tested on: SW-620 colon
NCI-H226 lung = tested on: NCI-H226 lung
U251 CNS = tested on: U251 CNS
IGROV1 ovarian = tested on: IGROV1 ovarian
NCI-H23 lung = tested on: NCI-H23 lung
UACC-257 melanoma = tested on: UACC-257 melanoma
MOLT-4 leukemia = tested on: MOLT-4 leukemia
786-0 renal = tested on: 786-0 renal
TK-10 renal = tested on: TK-10 renal
HL-60(TB) leukemia = tested on: HL-60(TB) leukemia
CCRF-CEM leukemia = tested on: CCRF-CEM leukemia
MCF7 breast = tested on: MCF7 breast
SF-295 CNS = tested on: SF-295 CNS
EKVX NSCLC = tested on: EKVX NSCLC
RPMI-8226 leukemia = tested on: RPMI-8226 leukemia
HOP-92 NSCLC = tested on: HOP-92 NSCLC
HCT-116 colon = tested on: HCT-116 colon
KM12 colon = tested on: KM12 colon
SK-MEL-2 melanoma = tested on: SK-MEL-2 melanoma
UACC-62 melanoma = tested on: UACC-62 melanoma
HCT-15 colon = tested on: HCT-15 colon

O=C1CC[C@@]2(O)[C@H]3Cc4ccc(-c5ccccc5)c5c4[C@@]2(CCN3CC2CC2)[C@H]1O5
TGI (T-47D breast): 35.7 µM | TGI (MDA-N): 32.9 µM | TGI (NCI/ADR-RES ovarian): 33.7 µM | TGI (SN12C renal): 72.4 µM | TGI (HT29 colon): 27.8 µM | TGI (SR leukemia): > 100 µM | TGI (OVCAR-3 ovarian): 33.6 µM | TGI (SF-539 CNS): 33.5 µM | TGI (A549 NSCLC): 43.6 µM | TGI (DU-145 prostate): 62.7 µM | TGI (OVCAR-8 ovarian): 32.4 µM | TGI (BT-549 breast): 31.3 µM | TGI (ACHN renal): 42.4 µM | TGI (PC-3 prostate): 46.7 µM | TGI (MDA-MB-231 breast): 31.8 µM | TGI (HOP-62 NSCLC): 40.6 µM | TGI (SNB-19 CNS): 59.6 µM | TGI (MALME-3M melanoma): 29.9 µM | TGI (NCI-H460 lung): 35.5 µM | TGI (NCI-H522 lung): 30.1 µM | TGI (UO-31 renal): 32.2 µM | TGI (M14 melanoma): 34 µM | TGI (COLO 205 colon): 35 µM | TGI (A498 renal): 36.6 µM | TGI (RXF 393 renal): 23.7 µM | TGI (SK-MEL-28 melanoma): > 100 µM | TGI (LOX IMVI melanoma): 32.8 µM | TGI (SK-OV-3 ovarian): 54 µM | TGI (K-562 leukemia): 63.7 µM | TGI (SF-268 CNS): 29.7 µM | TGI (CAKI-1 renal): 36.7 µM | TGI (SK-MEL-5 melanoma): 28.6 µM | TGI (MDA-MB-435): 26.6 µM | TGI (HCC-2998 colon): 33.8 µM | TGI (OVCAR-5 ovarian): 35.4 µM | TGI (OVCAR-4 ovarian): > 100 µM | TGI (SW-620 colon): 25 µM | TGI (NCI-H226 lung): 50.1 µM | TGI (U251 CNS): 32.1 µM | TGI (IGROV1 ovarian): > 100 µM | TGI (NCI-H23 lung): 78.9 µM | TGI (UACC-257 melanoma): 31.3 µM | TGI (MOLT-4 leukemia): 43.5 µM | TGI (786-0 renal): 30.3 µM | TGI (TK-10 renal): 36.4 µM | TGI (HL-60(TB) leukemia): 37.3 µM | TGI (CCRF-CEM leukemia): 49.7 µM | TGI (MCF7 breast): 33.5 µM | TGI (SF-295 CNS): 33.6 µM | TGI (EKVX NSCLC): 52.3 µM | TGI (RPMI-8226 leukemia): 47.8 µM | TGI (HOP-92 NSCLC): 57.4 µM | TGI (HCT-116 colon): 32 µM | TGI (KM12 colon): 36.6 µM | TGI (SK-MEL-2 melanoma): 33.7 µM | TGI (UACC-62 melanoma): 25.2 µM | TGI (HCT-15 colon): 41.2 µM
